Each molecule was assayed against T1, SGLT (Oryctolagus cuniculus, UniProt P11170) (assay: Glucose uptake transport assay on rabbit small intestine brush border membrane vesicles). Conditions: uptake of 10 μM [14C]D glucose into rabbit small intestine brush border membrane vesicles, 15 seconds, 30° C., membrane filtration method.
T1 construct: To prepare brush border membranes from rabbit small intestine, rabbits were sacrificed; from tissue; host or cells: rabbit small intestine mucosa, brush border membrane vesicles (Mg2+ precipitation)
T1 sequence (P11170 1-662): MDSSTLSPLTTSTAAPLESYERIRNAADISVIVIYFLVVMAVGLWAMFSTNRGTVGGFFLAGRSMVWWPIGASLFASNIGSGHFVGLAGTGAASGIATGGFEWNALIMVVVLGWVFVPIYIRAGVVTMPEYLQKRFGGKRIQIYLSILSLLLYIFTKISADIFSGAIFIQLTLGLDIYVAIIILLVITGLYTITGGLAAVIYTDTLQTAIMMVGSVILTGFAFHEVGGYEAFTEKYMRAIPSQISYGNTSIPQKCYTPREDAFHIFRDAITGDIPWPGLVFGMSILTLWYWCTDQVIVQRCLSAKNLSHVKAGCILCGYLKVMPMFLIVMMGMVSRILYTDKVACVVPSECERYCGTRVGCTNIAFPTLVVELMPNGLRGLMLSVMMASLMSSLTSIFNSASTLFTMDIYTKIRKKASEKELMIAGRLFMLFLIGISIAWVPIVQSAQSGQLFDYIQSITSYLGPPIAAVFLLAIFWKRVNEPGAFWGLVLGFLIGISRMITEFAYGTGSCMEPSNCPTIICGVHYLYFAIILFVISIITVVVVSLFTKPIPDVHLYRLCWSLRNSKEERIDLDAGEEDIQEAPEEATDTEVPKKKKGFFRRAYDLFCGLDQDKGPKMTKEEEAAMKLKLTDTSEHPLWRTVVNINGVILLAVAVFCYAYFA
Format: biochemical
Experimental: Preparation of brush border membrane vesicles from the small intestine of rabbits, rats and pigs
Preparation of brush border membrane vesicles from the intestinal cells of the small intestine was carried out by the so-called Mg^2+ precipitation method. The mucosa of the small intestine was scraped off and suspended in 60 ml of ice-cold Tris/HCl buffer (pH 7.1)/300 mM mannitol, 5 mM EGTA. Dilution to 300 ml with ice-cold distilled water was followed by homogenization with an Ultraturrax (18 shaft, IKA Werk Staufen, FRG) at 75% of the max. power for 2×1 minute, while cooling in ice. After addition of 3 ml of 1M MgCl2 solution (final concentration 10 mM), the mixture is left to stand at 0° C. for exactly 15 minutes. Addition of Mg^2+ causes the cell membranes to aggregate and precipitate with the exception of the brush border membranes. After centrifugation at 3 000×g (5 000 rpm, SS-34 rotor) for 15 minutes, the precipitate is discarded and the supernatant, which contains the brush border membranes, is centrifuged at 26 700×g (15 000 rpm, SS-34 rotor) for 30 minutes. The supernatant is discarded, and the precipitate is rehomogenized in 60 ml of 12 mM Tris/HCl buffer (pH 7.1)/60 mM mannitol, 5 mM EGTA using a Potter Elvejhem homogenizer (Braun, Melsungen, 900 rpm, 10 strokes). Addition of 0.1 ml of 1M MgCl2 solution and incubation at 0° C. for 15 minutes is followed by centrifugation again at 3 000×g for 15 minutes. The supernatant is then centrifuged again at 46 000×g (20 000 rpm, SS-34 rotor) for 30 minutes. The precipitate is taken up in 30 ml of 20 mM Tris/Hepes buffer (pH 7.4)/280 mM mannitol and homogeneously resuspended by 20 strokes in a Potter Elvejhem homogenizer at 1 000 rpm. After centrifugation at 48 000×g (20 000 rpm, SS-34 rotor) for 30 minutes, the precipitate was taken up in 0.5 to 2 ml of Tris/Hepes buffer (pH 7.4)/280 mM mannitol (final concentration 20 mg/ml) and resuspended using a tuberculin syringe with a 27 gauge needle. […]
The uptake of [^14C]-labeled glucose into brush border membrane vesicles was measured by the membrane filtration method. […]

| IC50 [nM] | Compound |
| --- | --- |
| 4000 | COc1ccc(Cc2sccc2OC2OC(CO)C(F)C(O)C2O)cc1 (single isomer, unassigned) [Example 1] |
| 300 | COc1ccc(Cc2sccc2OC2OC(CO)C(F)C(O)C2O)cc1 (single isomer, unassigned) [Example 3] |
| 400 | COc1ccc(Cc2sc3ccccc3c2OC2OC(CO)C(F)C(O)C2O)cc1 (stereo not drawn) [Example 2] |
